Measurements as given in US20260262643A1, “HERBICIDAL BENZOXAZINES” (FMC CORPORATION, priority 2022, published 2026).

What was measured:
[1] = system: barnyardgrass; assay: Test C preemergence; format: in vivo, Echinochloa crusgalli; conditions: 0 to 100 scale (0 no effect, 100 complete control); for Plant response rating, Barnyardgrass: Preemergence, 500 g ai/ha, visual rating after 10 days; for Barnyardgrass plant response rating: preemergence, 125 g ai/ha
Summary of the method: (§1)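 Test material, in non-phytotoxic solvent with surfactant, was sprayed on the soil directly after seeding (preemergence) or on young plants of 2–10 cm with one to two leaves (postemergence). Greenhouse, 10 days; 0–100 visual control scale.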

[2] = system: blackgrass; assay: Test C preemergence; format: in vivo, Alopecurus myosuroides; conditions: 0 to 100 scale (0 no effect, 100 complete control); for Plant response rating, Blackgrass: Preemergence, 500 g ai/ha, visual rating after 10 days; for Blackgrass plant response rating: Test C, preemergence, 125 g ai/ha
Summary of the method: as §1

[3] = system: corn; assay: Test C preemergence; format: in vivo, Zea mays; conditions: 0 to 100 scale (0 no effect, 100 complete control); for Corn plant response rating: preemergence
Summary of the method: as §1

[4] = system: green foxtail; assay: Test C preemergence; format: in vivo, Setaria viridis; conditions: 0 to 100 scale (0 no effect, 100 complete control); for Foxtail, Green plant response rating: preemergence
Summary of the method: as §1

[5] = system: kochia; assay: Test C preemergence; format: in vivo, Bassia scoparia; conditions: 0 to 100 scale (0 no effect, 100 complete control); for Kochia plant response rating: preemergence
Summary of the method: as §1

[6] = system: oat, wild; assay: Test C preemergence; format: in vivo, Avena fatua; conditions: 0 to 100 scale (0 no effect, 100 complete control); for Oat, Wild plant response rating: preemergence
Summary of the method: as §1

[7] = system: pigweed, palmer; assay: Test C preemergence; format: in vivo, Amaranthus palmeri; conditions: 0 to 100 scale (0 no effect, 100 complete control); for Pigweed, Palmer plant response rating: preemergence
Summary of the method: as §1

[8] = system: ragweed; assay: Test C preemergence; format: in vivo, Ambrosia artemisiifolia; conditions: 0 to 100 scale (0 no effect, 100 complete control); for Ragweed plant response rating: preemergence
Summary of the method: as §1

[9] = system: ryegrass, Italian; assay: Test C preemergence; format: in vivo, Lolium multiflorum; conditions: 0 to 100 scale (0 no effect, 100 complete control); for Ryegrass, Italian plant response rating: preemergence
Summary of the method: as §1

[10] = system: soybean; assay: Test C preemergence; format: in vivo, Glycine max; conditions: 0 to 100 scale (0 no effect, 100 complete control); for Soybean plant response rating: preemergence
Summary of the method: as §1

[11] = system: wheat; assay: Test C preemergence; format: in vivo, Triticum aestivum; conditions: 0 to 100 scale (0 no effect, 100 complete control); for Wheat plant response rating: preemergence
Summary of the method: as §1

[12] = system: barnyardgrass; assay: Test C postemergence; format: in vivo, Echinochloa crusgalli; conditions: 10 days
Summary of the method: as §1

[13] = system: blackgrass; assay: Test C postemergence; format: in vivo, Alopecurus myosuroides; conditions: 10 days
Summary of the method: as §1

[14] = system: corn; assay: Test C postemergence; format: in vivo, Zea mays; conditions: 10 days
Summary of the method: as §1

[15] = system: green foxtail; assay: Test C postemergence; format: in vivo, Setaria viridis; conditions: 10 days
Summary of the method: as §1

[16] = system: kochia; assay: Test C postemergence; format: in vivo, Bassia scoparia; conditions: 10 days
Summary of the method: as §1

[17] = system: oat, wild; assay: Test C postemergence; format: in vivo, Avena fatua; conditions: 10 days
Summary of the method: as §1

[18] = system: pigweed, palmer; assay: Test C postemergence; format: in vivo, Amaranthus palmeri; conditions: 10 days
Summary of the method: as §1

[19] = system: ragweed; assay: Test C postemergence; format: in vivo, Ambrosia artemisiifolia; conditions: 10 days
Summary of the method: as §1

[20] = system: ryegrass, Italian; assay: Test C postemergence; format: in vivo, Lolium multiflorum; conditions: 10 days
Summary of the method: as §1

[21] = system: soybean; assay: Test C postemergence; format: in vivo, Glycine max; conditions: 10 days
Summary of the method: as §1

[22] = system: wheat; assay: Test C postemergence; format: in vivo, Triticum aestivum; conditions: 10 days
Summary of the method: as §1

[23] = system: galium; assay: Test C postemergence; format: in vivo, Galium aparine; conditions: 10 days
Summary of the method: as §1

[24] = system: horseweed; assay: Test C postemergence; format: in vivo, Erigeron canadensis; conditions: 10 days
Summary of the method: as §1

[25] = system: barnyardgrass; assay: Test D flooded paddy test; format: in vivo, Echinochloa crus-galli; conditions: 250 g ai/ha, applied to paddy water, visual rating after 13 to 14 days, scale 0 to 100 (0 no effect, 100 complete control)
Summary of the method: (§2)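 Seedlings reached the 2-leaf stage, then pots were flooded to 3 cm over the soil surface. Compound was applied into the water, depth was maintained, and plants stayed in the greenhouse 13 to 14 days before visual scoring (0–100) relative to controls.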

[26] = system: ducksalad; assay: Test D flooded paddy test; format: in vivo, Heteranthera limosa; conditions: 250 g ai/ha, applied to paddy water, visual rating after 13 to 14 days, scale 0 to 100 (0 no effect, 100 complete control)
Summary of the method: as §2

[27] = system: rice; assay: Test D flooded paddy test; format: in vivo, Oryza sativa; conditions: 250 g ai/ha, applied to paddy water, visual rating after 13 to 14 days, scale 0 to 100 (0 no effect, 100 complete control)
Summary of the method: as §2

[28] = system: sedge, umbrella; assay: Test D flooded paddy test; format: in vivo, Cyperus difformis; conditions: 250 g ai/ha, applied to paddy water, visual rating after 13 to 14 days, scale 0 to 100 (0 no effect, 100 complete control)
Summary of the method: as §2

[29] = 125 g ai/ha, postemergence, 0 to 100 scale, 0 no effect, 100 complete control
[30] = Postemergence, 500 g ai/ha, visual 0 to 100 scale (0 no effect, 100 complete control)
[31] = Preemergence, 500 g ai/ha, visual rating after 10 days

COC[C@H]1CN(C(=O)c2cc(-n3cnc(C(C)(C)O)n3)ccc2C)c2cccc(Cl)c2O1 [Compound 276]
70: Plant response rating, Kochia [16, 29] | Plant response rating, Ducksalad (Flood) [26]
30: Plant response rating, Barnyardgrass [12, 29]
90: Barnyardgrass plant response rating ([1]; Test C) | Plant response rating, Blackgrass [2] | Blackgrass plant response rating [2] | Corn plant response rating ([3]; 500 g ai/ha) | Kochia plant response rating ([5]; 500 g ai/ha) | Kochia plant response rating ([5]; Test C, 125 g ai/ha) | Oat, Wild plant response rating ([6]; 500 g ai/ha) | Ryegrass, Italian plant response rating ([9]; 500 g ai/ha) | Ryegrass, Italian plant response rating ([9]; Test C, 125 g ai/ha) | Wheat plant response rating ([11]; 500 g ai/ha) | Plant response rating, Barnyardgrass [12, 30] | Plant response rating, Blackgrass [13, 30] | Plant response rating, Corn [14, 30] | Plant response rating, Foxtail, Green [15, 30]
40: Plant response rating, Foxtail, Green [15, 29] | Plant response rating, Horseweed [24, 30]
50: Corn plant response rating ([3]; Test C, 125 g ai/ha) | Plant response rating, Corn [14, 29] | Plant response rating, Horseweed [24, 29]
35: Plant response rating, Barnyardgrass (Flood) [25]
20: Plant response rating, Rice (Flood) [27]
80: Oat, Wild plant response rating ([6]; Test C, 125 g ai/ha) | Ragweed plant response rating ([8]; 500 g ai/ha) | Wheat plant response rating ([11]; Test C, 125 g ai/ha) | Plant response rating, Oat, Wild [17, 29] | Plant response rating, Ryegrass, Italian [20, 29] | Plant response rating, Sedge, Umbrella (Flood) [28]
60: Ragweed plant response rating ([8]; Test C, 125 g ai/ha) | Plant response rating, Blackgrass [13, 29] | Plant response rating, Pigweed, Palmer [18, 29] | Plant response rating, Ragweed [19, 29] | Plant response rating, Wheat [22, 29]
100: Plant response rating, Barnyardgrass [1] | Foxtail, Green plant response rating ([4]; 500 g ai/ha) | Foxtail, Green plant response rating ([4]; Test C, 125 g ai/ha) | Pigweed, Palmer plant response rating ([7]; 500 g ai/ha) | Pigweed, Palmer plant response rating ([7]; Test C, 125 g ai/ha) | Soybean plant response rating ([10]; 500 g ai/ha) | Soybean plant response rating ([10]; Test C, 125 g ai/ha) | Plant response rating, Soybean [21, 29] | Plant response rating, Galium [23, 29] | Plant response rating, Galium [23, 30]

CCc1c(F)cc(-n2cnc(C(C)C)n2)cc1C(=O)N1C[C@H](C)Oc2c(Cl)cccc21 [Compound 152]
0: Plant response rating, Ragweed [8, 31] | Ragweed plant response rating ([8]; Test C, 125 g ai/ha) | Plant response rating, Oat, Wild [17, 29] | Plant response rating, Horseweed [24, 29] | Plant response rating, Horseweed [24, 30] | Plant response rating, Barnyardgrass (Flood) [25] | Plant response rating, Ducksalad (Flood) [26] | Plant response rating, Rice (Flood) [27] | Plant response rating, Sedge, Umbrella (Flood) [28]
80: Plant response rating, Kochia [16, 29] | Plant response rating, Kochia [16, 30] | Plant response rating, Pigweed, Palmer [18, 29]
50: Blackgrass plant response rating [2] | Plant response rating, Corn [3, 31] | Soybean plant response rating ([10]; Test C, 125 g ai/ha) | Plant response rating, Blackgrass [13, 29]
70: Barnyardgrass plant response rating [1] | Plant response rating, Oat, Wild [6, 31] | Ryegrass, Italian plant response rating ([9]; Test C, 125 g ai/ha) | Plant response rating, Soybean [10, 31] | Plant response rating, Blackgrass [13, 30] | Plant response rating, Corn [14, 30]
40: Kochia plant response rating ([5]; Test C, 125 g ai/ha) | Plant response rating, Wheat [11, 31] | Plant response rating, Corn [14, 29] | Plant response rating, Foxtail, Green [15, 29] | Plant response rating, Ragweed [19, 29]
30: Corn plant response rating ([3]; Test C, 125 g ai/ha) | Plant response rating, Oat, Wild [17, 30] | Plant response rating, Ryegrass, Italian [20, 29]
60: Plant response rating, Blackgrass [2] | Oat, Wild plant response rating ([6]; Test C, 125 g ai/ha) | Plant response rating, Barnyardgrass [12, 29] | Plant response rating, Ragweed [19, 30] | Plant response rating, Ryegrass, Italian [20, 30]
20: Wheat plant response rating ([11]; Test C, 125 g ai/ha) | Plant response rating, Wheat [22, 29] | Plant response rating, Wheat [22, 30]
90: Plant response rating, Barnyardgrass [1] | Plant response rating, Kochia [5, 31] | Plant response rating, Pigweed, Palmer [7, 31] | Pigweed, Palmer plant response rating ([7]; Test C, 125 g ai/ha) | Plant response rating, Ryegrass, Italian [9, 31] | Plant response rating, Barnyardgrass [12, 30] | Plant response rating, Foxtail, Green [15, 30] | Plant response rating, Pigweed, Palmer [18, 30]
100: Plant response rating, Foxtail, Green [4, 31] | Foxtail, Green plant response rating ([4]; Test C, 125 g ai/ha) | Plant response rating, Soybean [21, 29] | Plant response rating, Soybean [21, 30] | Plant response rating, Galium [23, 29] | Plant response rating, Galium [23, 30]

CCc1ncn(-c2ccc(OC)c(C(=S)N3C[C@H](C)Oc4c(C)cccc43)c2)n1 [Compound 271]
30: Kochia plant response rating ([5]; Test C, 125 g ai/ha) | Oat, Wild plant response rating ([6]; Test C, 125 g ai/ha)
50: Plant response rating, Corn [14, 29] | Plant response rating, Ragweed [19, 29] | Plant response rating, Horseweed [24, 29]
80: Oat, Wild plant response rating ([6]; 500 g ai/ha) | Ryegrass, Italian plant response rating ([9]; Test C, 125 g ai/ha) | Wheat plant response rating ([11]; 500 g ai/ha) | Plant response rating, Oat, Wild [17, 29]
60: Plant response rating, Blackgrass [2] | Plant response rating, Kochia [16, 29] | Plant response rating, Ryegrass, Italian [20, 29]
85: Plant response rating, Ducksalad (Flood) [26]
100: Plant response rating, Barnyardgrass [1] | Barnyardgrass plant response rating ([1]; Test C) | Foxtail, Green plant response rating ([4]; 500 g ai/ha) | Foxtail, Green plant response rating ([4]; Test C, 125 g ai/ha) | Kochia plant response rating ([5]; 500 g ai/ha) | Pigweed, Palmer plant response rating ([7]; 500 g ai/ha) | Pigweed, Palmer plant response rating ([7]; Test C, 125 g ai/ha) | Ragweed plant response rating ([8]; 500 g ai/ha) | Soybean plant response rating ([10]; 500 g ai/ha) | Plant response rating, Soybean [21, 29] | Plant response rating, Galium [23, 30] | Plant response rating, Sedge, Umbrella (Flood) [28]
10: Ragweed plant response rating ([8]; Test C, 125 g ai/ha) | Plant response rating, Rice (Flood) [27]
90: Ryegrass, Italian plant response rating ([9]; 500 g ai/ha) | Plant response rating, Barnyardgrass [12, 30] | Plant response rating, Blackgrass [13, 30] | Plant response rating, Corn [14, 30] | Plant response rating, Foxtail, Green [15, 29] | Plant response rating, Foxtail, Green [15, 30] | Plant response rating, Pigweed, Palmer [18, 29] | Plant response rating, Galium [23, 29] | Plant response rating, Horseweed [24, 30]
20: Blackgrass plant response rating [2] | Wheat plant response rating ([11]; Test C, 125 g ai/ha)
0: Corn plant response rating ([3]; 500 g ai/ha) | Corn plant response rating ([3]; Test C, 125 g ai/ha) | Plant response rating, Barnyardgrass (Flood) [25]
70: Soybean plant response rating ([10]; Test C, 125 g ai/ha) | Plant response rating, Barnyardgrass [12, 29] | Plant response rating, Blackgrass [13, 29] | Plant response rating, Wheat [22, 29]
